# Reference: patent publication JP2010202587A, “プロトンポンプ阻害剤を含有する組成物” (Pola Chemical Industries Inc, priority 2009, dated 2010)
# Assays:
# [1] = test system: human normal melanocytes [ヒト正常メラノサイト]; experiment: Melanin production inhibition (2-[2-14C]thiouracil uptake, 4 days); assay type: cell-based; settings: in words, from Table 1
# [2] = test system: human normal melanocytes [ヒト正常メラノサイト]; experiment: Detection of acidification in melanosomes (proton pump inhibition; DAMP fluorescence, confocal laser microscope); assay type: cell-based; settings: Figure 2; for Colour of overlaid photograph (DAMP + tyrosinase): yellow = melanosome acidified
# tyrosinase [チロシナ−ゼ] [3] = molecular target: T1, tyrosinase [チロシナ−ゼ] (Homo sapiens, UniProt P14679); experiment: Direct tyrosinase inhibition (human melanocyte extract, L-DOPA substrate); assay type: biochemical; settings: human normal melanocyte extract, 37℃, 15 min, in words, from Table 2
# T1 construct: 溶解液を15000rpm、5分間遠心し、上清を回収し細胞抽出液とした; host or cells: normal human melanocytes (detergent lysate supernatant)
# tyrosinase [チロシナ−ゼ] [4] = molecular target: T2, tyrosinase [チロシナ−ゼ] (Homo sapiens, UniProt P14679); settings: known from patent literature; cited from earlier work
# T2 sequence (P14679 19-529): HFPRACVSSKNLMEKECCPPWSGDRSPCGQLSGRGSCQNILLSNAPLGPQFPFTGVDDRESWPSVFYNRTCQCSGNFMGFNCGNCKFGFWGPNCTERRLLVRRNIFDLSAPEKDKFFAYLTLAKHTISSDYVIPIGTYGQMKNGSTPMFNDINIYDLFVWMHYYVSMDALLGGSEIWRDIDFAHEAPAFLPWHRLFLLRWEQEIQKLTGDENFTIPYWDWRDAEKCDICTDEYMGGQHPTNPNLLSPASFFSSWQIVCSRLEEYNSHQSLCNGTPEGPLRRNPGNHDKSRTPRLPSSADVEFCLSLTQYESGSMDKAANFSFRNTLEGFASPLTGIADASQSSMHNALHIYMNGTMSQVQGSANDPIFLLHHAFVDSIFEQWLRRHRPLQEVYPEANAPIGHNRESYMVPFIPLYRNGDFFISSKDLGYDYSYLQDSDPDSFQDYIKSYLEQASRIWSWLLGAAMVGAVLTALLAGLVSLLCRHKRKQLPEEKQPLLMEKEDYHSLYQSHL
Red staining showing the presence of tyrosinase ([2]; versus untreated control),Colour of overlaid photograph (DAMP + tyrosinase) [2],Compound,Melanin production inhibition compared with the positive control (hydroquinone) [1],further results
同程度,–,"CC(C)=CCc1cc([C@@H]2CC(=O)c3c(O)c(CC=C(C)C)c(O)c(CC=C(C)C)c3O2)cc(O)c1O [化合物3, amorisin]",陽性対照と同等乃至はそれ以上のメラニン産生抑制作用,–
–,黄色より幾分オレンジ色がかっている,Euchrenone a3 [化合物2],優れたメラニン産生抑制作用,–
–,–,NC(=S)Nc1ccccc1 [フェニルチオウレア],–,Direct tyrosinase inhibition (tyrosinase [チロシナ−ゼ] [3]): 顕著なチロシナ−ゼ直接阻害作用を示した
コントロ−ルと同程度,黄色を呈している,Euchrenone a6 [化合物1],優れたメラニン産生抑制作用,Green staining showing the degree of acidification (DAMP) ([2]; versus untreated control): 濃くなっており
–,–,"Oc1ccc(O)cc1 [ハイドロキノン, reference compound]",–,Melanin production inhibition [1]: 優れたメラニン産生抑制作用
–,–,CCCCc1ccc(O)cc1O [4−n−ブチルレゾルシノ−ル],–,Tyrosinase inhibitory activity (tyrosinase [チロシナ−ゼ] [4]): 強力なチロシナ−ゼ阻害活性
